Laboratory results as given in patent US20150376198A1, “MODULATORS OF VASOPRESSIN RECEPTORS WITH THERAPEUTIC POTENTIAL” (priority 2013, published 2015).

Target: human Arginine Vasopressin Receptor 1a (AVPR1a) (Homo sapiens, UniProt P37288)
Test: cell-based
Settings: not given

Chain of human Arginine Vasopressin Receptor 1a (AVPR1a) (P37288 whole entry): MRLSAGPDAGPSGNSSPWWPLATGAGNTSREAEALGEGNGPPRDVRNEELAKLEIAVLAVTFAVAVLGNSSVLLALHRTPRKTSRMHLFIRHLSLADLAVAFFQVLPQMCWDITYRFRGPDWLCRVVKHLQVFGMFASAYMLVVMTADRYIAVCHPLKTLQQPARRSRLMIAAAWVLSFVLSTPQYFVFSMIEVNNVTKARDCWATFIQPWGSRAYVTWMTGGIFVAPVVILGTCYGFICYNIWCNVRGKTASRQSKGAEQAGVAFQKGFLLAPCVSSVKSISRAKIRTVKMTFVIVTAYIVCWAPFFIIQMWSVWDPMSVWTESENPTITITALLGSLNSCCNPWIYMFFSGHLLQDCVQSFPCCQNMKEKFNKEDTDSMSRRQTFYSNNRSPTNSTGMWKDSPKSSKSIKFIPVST

Going from `N#CC1(c2ccccc2)CCN(C(=O)N2CCCCc3cc(Cl)ccc32)CC1` [Compound 134] to `O=C(C1CCN(c2ncccc2F)CC1)N(CC1CC1)c1ccc(Cl)cc1` [Compound 140], the IC50 falls from 358 nM to 15 nM (24-fold).

First: O=C(C1CCN(c2ccc(Cl)cn2)CC1)N(CC1CC1)c1ccc(Cl)cc1 [Compound 141]
Second: O=C(C1CCN(c2ccc(F)cn2)CC1)N(CC1CC1)c1ccc(Cl)cc1 [Compound 146]
The IC50 of the first is 1.7-fold higher: 40 nM for the first, 24 nM for the second.

Going from `Cc1ccc(N2CCC(C(=O)N(CC3CC3)c3ccc(Cl)cc3)CC2)nc1` [Compound 149] to `O=C(C1CCN(c2cc(C(F)(F)F)ccn2)CC1)N(CC1CC1)c1ccc(Cl)cc1` [Compound 179], the IC50 rises from 20 nM to 37 nM (1.9-fold).

Same assay, conditions: read-out: V1a-R IC50

Going from `CCC(CC)C(=O)N1CCC(C(=O)N2CCCCc3cc(Cl)ccc32)CC1` [Compound 79] to `CC(C)(C)C(=O)N1CCC(C(=O)N2CCCCc3cc(Cl)ccc32)CC1` [Compound 82], the IC50 falls from 5400 nM to 2490 nM (2.2-fold).

Going from `Cc1noc(C)c1C(=O)N1CCC(C(=O)N2CCCCc3cc(Cl)ccc32)CC1` [Compound 80] to `Cc1cncc(C(=O)N2CCC(C(=O)N3CCCCc4cc(Cl)ccc43)CC2)c1` [Compound 117], the IC50 falls from 15100 nM to 1160 nM (13-fold). The second is the more potent here.

First: O=C(C1CCN(C(=O)C23CC4CC(CC(C4)C2)C3)CC1)N1CCCCc2cc(Cl)ccc21 [Compound 81]
Second: O=C(c1ccc(F)c(F)c1)N1CCC(C(=O)N2CCCCc3cc(Cl)ccc32)CC1 [Compound 90]
The IC50 of the first is 5.3-fold higher: 8080 nM for the first, 1520 nM for the second. The second is the more potent here.

`O=C(c1ccccc1)N1CCC(C(=O)N2CCCCc3cc(Cl)ccc32)CC1` [Compound 83] and `O=C(c1ccccc1F)N1CCC(C(=O)N2CCCCc3cc(Cl)ccc32)CC1` [Compound 84] are within 1.5-fold of each other in IC50: 1820 nM for the first, 1490 nM for the second.

Compared with `COc1ccc(C(=O)N2CCC(C(=O)N3CCCCc4cc(Cl)ccc43)CC2)cc1` [Compound 85], `O=C(c1ccc(Cl)cc1)N1CCC(C(=O)N2CCCCc3cc(Cl)ccc32)CC1` [Compound 86] is 2.1-fold lower in IC50: 1780 nM for the first, 835 nM for the second.

Going from `O=C(c1ccc(C(F)(F)F)cc1)N1CCC(C(=O)N2CCCCc3cc(Cl)ccc32)CC1` [Compound 87] to `O=C(c1cccc(C(F)(F)F)c1)N1CCC(C(=O)N2CCCCc3cc(Cl)ccc32)CC1` [Compound 88], the IC50 falls from 1870 nM to 595 nM (3.1-fold). The second is the more potent here.

Compared with `O=C(c1ccc(Cl)cc1Cl)N1CCC(C(=O)N2CCCCc3cc(Cl)ccc32)CC1` [Compound 89], `N#Cc1ccc(C(=O)N2CCC(C(=O)N3CCCCc4cc(Cl)ccc43)CC2)c(F)c1` [Compound 114] is 5.3-fold higher in IC50: 1800 nM for the first, 9480 nM for the second.

`O=C(c1cccc(F)c1F)N1CCC(C(=O)N2CCCCc3cc(Cl)ccc32)CC1` [Compound 91] and `O=C(c1c(F)cccc1F)N1CCC(C(=O)N2CCCCc3cc(Cl)ccc32)CC1` [Compound 92] are within 1.5-fold of each other in IC50: 1860 nM for the first, 1720 nM for the second.

`O=C(c1ccncc1)N1CCC(C(=O)N2CCCCc3cc(Cl)ccc32)CC1` [Compound 93] and `N#Cc1ccc(C(=O)N2CCC(C(=O)N3CCCCc4cc(Cl)ccc43)CC2)cc1` [Compound 113] are within 1.5-fold of each other in IC50: 5810 nM for the first, 5760 nM for the second.

Compared with `O=C(C1CCN(c2ccccn2)CC1)N1CCCCc2cc(Cl)ccc21` [Compound 109], `O=C(C1CCN(c2ncccn2)CC1)N1CCCCc2cc(Cl)ccc21` [Compound 110] is 41-fold higher in IC50: 5 nM for the first, 207 nM for the second.

Going from `N#Cc1cccnc1N1CCC(C(=O)N2CCCCc3cc(Cl)ccc32)CC1` [Compound 111] to `N#Cc1ccnc(N2CCC(C(=O)N3CCCCc4cc(Cl)ccc43)CC2)c1` [Compound 177], the IC50 falls from 130 nM to 28 nM (4.6-fold).

Going from `N#Cc1ccc(N2CCC(C(=O)N3CCCCc4cc(Cl)ccc43)CC2)nc1` [Compound 112] to `N#Cc1ccnc(N2CCC(C(=O)N3CCCCc4cc(Cl)ccc43)CC2)n1` [Compound 181], the IC50 falls from 1230 nM to 81 nM (15-fold). The second is the more potent here.

Going from `N#Cc1cc(C(=O)N2CCC(C(=O)N3CCCCc4cc(Cl)ccc43)CC2)ccc1F` [Compound 115] to `O=C(c1cc(F)cc(F)c1)N1CCC(C(=O)N2CCCCc3cc(Cl)ccc32)CC1` [Compound 116], the IC50 falls from 5280 nM to 1600 nM (3.3-fold).

Going from `CS(=O)(=O)c1ccc(C(=O)N2CCC(C(=O)N3CCCCc4cc(Cl)ccc43)CC2)cc1` [Compound 118] to `O=C(c1csc2ccccc12)N1CCC(C(=O)N2CCCCc3cc(Cl)ccc32)CC1` [Compound 119], the IC50 falls from 12900 nM to 621 nM (21-fold). The second is the more potent here.

Going from `O=C(c1c[nH]c2ccccc12)N1CCC(C(=O)N2CCCCc3cc(Cl)ccc32)CC1` [Compound 120] to `O=C(c1cc2ccccc2[nH]1)N1CCC(C(=O)N2CCCCc3cc(Cl)ccc32)CC1` [Compound 121], the IC50 rises from 249 nM to 446 nM (1.8-fold). The first is the more potent here.

Compared with `O=C(N1CCN(c2ccccn2)CC1)N1CCCCc2cc(Cl)ccc21` [Compound 122], `Cc1cccnc1N1CCN(C(=O)N2CCCCc3cc(Cl)ccc32)CC1` [Compound 124] is 2-fold lower in IC50: 80 nM for the first, 40 nM for the second.

First: O=C(N1CCN(c2ncccn2)CC1)N1CCCCc2cc(Cl)ccc21 [Compound 123]
Second: O=C(N1CCN(c2ncccc2Cl)CC1)N1CCCCc2cc(Cl)ccc21 [Compound 125]
The IC50 of the first is 4.5-fold higher: 256 nM for the first, 57 nM for the second. The second is the more potent here.

First: O=C(N1CCN(c2ncccc2C(F)(F)F)CC1)N1CCCCc2cc(Cl)ccc21 [Compound 126]
Second: O=C(N1CCN(c2ccc(C(F)(F)F)cc2)CC1)N1CCCCc2cc(Cl)ccc21 [Compound 132]
The IC50 of the first is 1.9-fold higher: 54 nM for the first, 29 nM for the second. The second is the more potent here.

Compared with `O=C(N1CCN(c2nccs2)CC1)N1CCCCc2cc(Cl)ccc21` [Compound 127], `O=C(N1CCN(c2ccccc2)CC1)N1CCCCc2cc(Cl)ccc21` [Compound 128] is 9.9-fold lower in IC50: 267 nM for the first, 27 nM for the second. The second is the more potent here.

`O=C(N1CCN(c2cc(Cl)cc(Cl)c2)CC1)N1CCCCc2cc(Cl)ccc21` [Compound 129] and `Cc1ccc(Cl)cc1N1CCN(C(=O)N2CCCCc3cc(Cl)ccc32)CC1` [Compound 130] are within 1.5-fold of each other in IC50: 205 nM for the first, 279 nM for the second.

Compared with `O=C(N1CCC(c2ccccc2)CC1)N1CCCCc2cc(Cl)ccc21` [Compound 131], `O=C(N1CCC(O)(c2ccccc2)CC1)N1CCCCc2cc(Cl)ccc21` [Compound 133] is 1.7-fold higher in IC50: 83 nM for the first, 137 nM for the second. The first is the more potent here.

Compared with `O=C(N1CCN(c2ccccc2Cl)CC1)N1CCCCc2cc(Cl)ccc21` [Compound 139], `O=C(C1CCN(c2ccnc(Cl)c2)CC1)N1CCCCc2cc(Cl)ccc21` [Compound 176] is 6.2-fold higher in IC50: 35 nM for the first, 216 nM for the second.

Going from `N#Cc1cccnc1N1CCC(C(=O)N(CC2CC2)c2ccc(Cl)cc2)CC1` [Compound 142] to `O=C(C1CCN(c2ncccc2Cl)CC1)N(CC1CC1)c1ccc(Cl)cc1` [Compound 144], the IC50 falls from 67 nM to 23 nM (2.9-fold). The second is the more potent here.

First: O=C(C1CCN(c2ncccc2C(F)(F)F)CC1)N(CC1CC1)c1ccc(Cl)cc1 [Compound 143]
Second: Cc1cccnc1N1CCC(C(=O)N(CC2CC2)c2ccc(Cl)cc2)CC1 [Compound 147]
The IC50 of the first is 12-fold higher: 84 nM for the first, 7 nM for the second. The second is the more potent here.

Going from `O=C(C1CCN(c2ccc(C(F)(F)F)cn2)CC1)N(CC1CC1)c1ccc(Cl)cc1` [Compound 145] to `N#Cc1ccc(N2CCC(C(=O)N(CC3CC3)c3ccc(Cl)cc3)CC2)nc1` [Compound 153], the IC50 rises from 123 nM to 800 nM (6.5-fold). The first is the more potent here.

First: Cc1ccnc(N2CCC(C(=O)N(CC3CC3)c3ccc(Cl)cc3)CC2)c1 [Compound 148]
Second: N#Cc1ccnc(N2CCC(C(=O)N(CC3CC3)c3ccc(Cl)cc3)CC2)c1 [Compound 173]
The IC50 of the first is 21-fold lower: 3 nM for the first, 63 nM for the second.

Compared with `Cc1cccc(N2CCC(C(=O)N(CC3CC3)c3ccc(Cl)cc3)CC2)n1` [Compound 150], `Cc1ccnc(N2CCC(C(=O)N(CC3CC3)c3ccc(Cl)cc3)CC2)n1` [Compound 169] is 2.2-fold higher in IC50: 23 nM for the first, 51 nM for the second.

Going from `Cc1cc(C)nc(N2CCC(C(=O)N(CC3CC3)c3ccc(Cl)cc3)CC2)n1` [Compound 151] to `Cc1cc(C)nc(N2CCN(C(=O)N(CC3CC3)c3ccc(Cl)cc3)CC2)n1` [Compound 158], the IC50 rises from 8 nM to 24 nM (3-fold).

First: O=C(C1CCN(c2cnccn2)CC1)N(CC1CC1)c1ccc(Cl)cc1 [Compound 152]
Second: O=C(C1CCN(c2ccccn2)CC1)N(CC1CC1)c1ccc(Cl)cc1 [Compound 154]
The IC50 of the first is 3-fold higher: 45 nM for the first, 15 nM for the second. The second is the more potent here.

Going from `O=C(N1CCN(c2ncc(F)cn2)CC1)N(CC1CC1)c1ccc(Cl)cc1` [Compound 155] to `Cc1cnc(N2CCN(C(=O)N(CC3CC3)c3ccc(Cl)cc3)CC2)nc1` [Compound 156], the IC50 falls from 106 nM to 17 nM (6.2-fold).

`O=C(N1CCN(c2ncc(Cl)cn2)CC1)N(CC1CC1)c1ccc(Cl)cc1` [Compound 157] and `O=C(C1CCN(c2ncc(Cl)cn2)CC1)N(CC1CC1)c1ccc(Cl)cc1` [Compound 167] are within 1.5-fold of each other in IC50: 206 nM for the first, 195 nM for the second.

Compared with `N#Cc1cccnc1N1CCN(C(=O)N(CC2CC2)c2ccc(Cl)cc2)CC1` [Compound 159], `Cc1cccnc1N1CCN(C(=O)N(CC2CC2)c2ccc(Cl)cc2)CC1` [Compound 160] is 10-fold lower in IC50: 81 nM for the first, 8 nM for the second.

Going from `Cc1ccnc(N2CCN(C(=O)N(CC3CC3)c3ccc(Cl)cc3)CC2)c1` [Compound 161] to `Cc1cnc(N2CCC(C(=O)N(CC3CC3)c3ccc(Cl)cc3)CC2)nc1` [Compound 166], the IC50 rises from 16 nM to 38 nM (2.4-fold).

Going from `O=C(C1CCN(c2ncc(F)cn2)CC1)N1CCCCc2cc(Cl)ccc21` [Compound 162] to `O=C(C1CCN(c2ncc(Cl)cn2)CC1)N1CCCCc2cc(Cl)ccc21` [Compound 164], the IC50 rises from 35 nM to 56 nM (1.6-fold).

Going from `Cc1cc(C)nc(N2CCC(C(=O)N3CCCCc4cc(Cl)ccc43)CC2)n1` [Compound 165] to `Cc1ccnc(N2CCC(C(=O)N3CCCCc4cc(Cl)ccc43)CC2)n1` [Compound 180], the IC50 rises from 2 nM to 17 nM (8.5-fold).

`O=C(C1CCN(c2ncc(F)cn2)CC1)N(CC1CC1)c1ccc(Cl)cc1` [Compound 168] and `N#Cc1ccnc(N2CCC(C(=O)N(CC3CC3)c3ccc(Cl)cc3)CC2)n1` [Compound 170] are within 1.5-fold of each other in IC50: 91 nM for the first, 96 nM for the second.

Compared with `O=C(C1CCN(c2nccc(C(F)(F)F)n2)CC1)N(CC1CC1)c1ccc(Cl)cc1` [Compound 171], `COc1ccnc(N2CCC(C(=O)N(CC3CC3)c3ccc(Cl)cc3)CC2)n1` [Compound 172] is 8.6-fold lower in IC50: 146 nM for the first, 17 nM for the second. The second is the more potent here.

First: O=C(C1CCN(c2nccc(C(F)(F)F)n2)CC1)N1CCCCc2cc(Cl)ccc21 [Compound 174]
Second: O=C(C1CCN(c2cc(C(F)(F)F)ccn2)CC1)N1CCCCc2cc(Cl)ccc21 [Compound 178]
The IC50 of the first is 4.8-fold higher: 82 nM for the first, 17 nM for the second. The second is the more potent here.

`COc1ccnc(N2CCC(C(=O)N3CCCCc4cc(Cl)ccc43)CC2)n1` [Compound 175] and `Cc1nc(N2CCC(C(=O)N3CCCCc4cc(Cl)ccc43)CC2)ncc1F` [Compound 183] are within 1.5-fold of each other in IC50: 11 nM for the first, 16 nM for the second.

With `CCc1cnc(N2CCC(C(=O)N3CCCCc4cc(Cl)ccc43)CC2)nc1` [Compound 182] the IC50 was 49 nM.
